Data taken from patent publication US8314079B2, “Hyaluronic acid oligosaccharide fractions and drugs containing the same” (Seikagaku Corporation, priority 2000, dated 2012).

Assays:
HSF1 = assay: Phosphorylation (activation) of HSF1 in heat-shocked K562 cells, band shift 66 kDa to 81 kDa by SDS-PAGE/Western blotting; type: cell-based, human; conditions: for shift of a band of 66 kDa (HSF1 not phosphorylated) to a band of 81 kDa (phosphorylated HSF1): Experiment 1, 1, 10 or 100 ng/mL, heat shock 42° C., 20 minutes; for amount of HSF1 per se / band shift of HSF1 (66 kDa to 81 kDa): Experiment 2 (and comparative Experiment 3), 100 ng/mL, heat shock 43° C.
Description: It is known that HSF1 (heat shock factor 1) protein is a transcription factor of Hsp70 (J. Biol. Chem., 271, pp. 3355-3358, 1996). Moreover, the HSF1 protein can be activated by phosphorylation, and this phosphorylation can be detected based on band shift in SDS-polyacrylamide gel electrophoresis (SDS-PAGE) (apparent molecular weight shifts from about 66 kDa to about 81 kDa). By utilizing this fact, the HA oligosaccharides of various sizes were allowed to act on the K562 cells given with stress, and the aforementioned band shift was detected to investigate the degree of the phosphorylation (activation) of HSF1.
HA4, ΔHA4, HA6, HA8, HA2-18 and HA 8-14 were each added to a medium containing the aforementioned cells at a concentration of 1, 10 or 100 ng/mL. Then, the cells were immediately transferred into an environment at 42° C. to be given with heat shock and incubated for 20 minutes. After the incubation, the cells were collected by centrifugation, and SDS-PAGE (gel concentration: 10%) was performed. Thereafter, Western blotting was performed by using anti-HSF1 monoclonal antibodies (produced by Stressgene) as primary antibodies and goat anti-mouse IgG monoclonal antibodies (produced by Jackson Lab) as secondary antibodies to detect the shift of a band of 66 kDa (HSF1 not phosphorylated) to a band of 81 kDa (phosphorylated HSF1).
In order to confirm the reproducibility of Experiment 1, the band shift was detected in the same manner as in Experiment 1 by using HA4, ΔHA4, HA8 and HA84 except that HA was added in a single kind of amount of 100 ng/mL, and the heat shock was given at 43° C. In FIG. 41, the first lane from the left indicates the result obtained with an extract of cells incubated at 37° C. (no addition of HA oligosaccharide), the second lane indicates the result obtained with an extract of cells subjected to 43° C. (no addition of HA oligosaccharide), and the first lane from the right indicates the result of detection of HSF1 (derived from bacteria) as a standard.
In order to investigate whether the action observed in Experiment 2 was specific to the saccharide chain basic structure of HA oligosaccharides, the following comparative experiment was performed by using chondroitin oligosaccharides. […] Therefore, it can be said that Ch is a substance extremely structurally analogous to HA, and the same shall also apply to the oligosaccharides thereof. • Saturated Ch tetrasaccharide (Ch4) • GlcAβ1-3GalNAcβ1-4GlcAβ1-3GalNAc • Saturated Ch hexasaccharide (Ch6) • GlcAβ1-3GalNAcβ1-4GlcAβ1-3GalNAcβ1-4GlcAβ1-3GalNAc • Saturated Ch octasaccharide (Ch8) • GlcAβ1-3GalNAcβ1-4GlcAβ1-3GalNAcβ1-4GlcAβ1-3GalNAcβ1-4GlcAβ1-3GalNAc
The same experiment as Experiment 2 was performed by using these oligosaccharides.

Hsp72 = assay: Expression of Hsp72 in K562 cells given heat shock, Western blotting; type: cell-based, human
Protocol: HA2, ΔHA4, HA6, HA84 and L4L4 were each added to a medium containing the aforementioned cells (37° C.) at a concentration of 1, 10 or 100 ng/mL. Then, the cells were immediately transferred into an environment at 43° C. to be given with heat shock and incubated for 20 minutes. Then, the cells were returned to 37° C., then further incubated for 2 hours and collected by centrifugation, and SDS-PAGE was performed in the same manner as in <1> mentioned above. Thereafter, Western blotting was performed by using anti-Hsp72 monoclonal antibodies (produced by Amersham) as primary antibodies and goat anti-rabbit IgG monoclonal antibodies (produced by Jackson Lab) as secondary antibodies to detect Hsp72. Hsp72 is one of the members of Hsp70 family and is the most typical one, and it is known that its expression is induced and promoted by stress.
The leftmost lane in FIG. 42a indicates the results of the detection of Hsp72 in a similar manner with giving no heat shock (37° C.) and addition of no test substance, and the rightmost lane indicates the results of detection of standard Hsp72 (Hsp72 derived from bacteria, bHsp72) in a similar manner.

CC(=O)N[C@H]1[C@H](O[C@H]2[C@H](O)[C@@H](O)[C@H](O[C@H]3[C@H](O)[C@@H](CO)O[C@@H](O[C@H]4[C@H](O)[C@@H](O)[C@H](O[C@H]5[C@H](O)[C@@H](CO)OC(O)[C@@H]5NC(C)=O)O[C@@H]4C(=O)O)[C@@H]3NC(C)=O)O[C@@H]2C(=O)O)O[C@H](CO)[C@@H](O)[C@@H]1O[C@@H]1O[C@H](C(=O)O)[C@@H](O)[C@H](O)[C@H]1O.[Na].[Na].[Na] (stereo partly drawn) [HA6, sodium β-D-glucopyranosyluronate-[(1→3)-2-acetamido-2-deoxy-β-D-glucopyranosyl-(1→4)-(sodium β-D-glucopyranosyluronate)]2-(1→3)-2-acetamido-2-deoxy-D-glucopyranose]
shift of a band of 66 kDa (HSF1 not phosphorylated) to a band of 81 kDa (phosphorylated HSF1) (HSF1): shift to the 81 kDa band was observed depending on the amount of the added HA oligosaccharide

CC(=O)N[C@H]1[C@H](O[C@H]2[C@H](O)[C@@H](O)[C@H](O[C@H]3[C@H](O)[C@@H](CO)O[C@@H](O[C@H]4[C@H](O)[C@@H](O)[C@H](O[C@H]5[C@H](O)[C@@H](CO)O[C@@H](O[C@H]6[C@H](O)[C@@H](O)[C@H](O[C@H]7[C@H](O)[C@@H](CO)OC(O)[C@@H]7NC(C)=O)O[C@@H]6C(=O)O)[C@@H]5NC(C)=O)O[C@@H]4C(=O)O)[C@@H]3NC(C)=O)O[C@@H]2C(=O)O)O[C@H](CO)[C@@H](O)[C@@H]1O[C@@H]1O[C@H](C(=O)O)[C@@H](O)[C@H](O)[C@H]1O (stereo partly drawn) [HA8, sodium β-D-glucopyranosyluronate-[(1→3)-2-acetamido-2-deoxy-β-D-glucopyranosyl-(1→4)-(sodium β-D-glucopyranosyluronate)]3-(1→3)-2-acetamido-2-deoxy-D-glucopyranose]
shift of a band of 66 kDa (HSF1 not phosphorylated) to a band of 81 kDa (phosphorylated HSF1) (HSF1): inhibition of the band shift was observed
amount of HSF1 per se (HSF1): increase of the amount of HSF1 of 66 kDa was observed
band shift of HSF1 (66 kDa to 81 kDa) (HSF1): band shift to the band of 81 kDa was not observed

CC(=O)NC1C(O)OC(CO)[C@@H](O)C1O[C@@H]1OC(C(=O)[O-])[C@@H](O[C@@H]2OC(CO)[C@@H](O)C(O[C@@H]3OC(C(=O)[O-])=CC(O)C3O)C2NC(C)=O)C(O)C1O.[Na+].[Na+] (stereo partly drawn) [ΔHA4, ΔGlcAβ1-3GlcNAcβ1-4GlcAβ1-3GlcNAc]
shift of a band of 66 kDa (HSF1 not phosphorylated) to a band of 81 kDa (phosphorylated HSF1) (HSF1): shift to the 81 kDa band was observed depending on the amount of the added HA oligosaccharide
amount of HSF1 per se (HSF1): amounts of both HSF1 of 66 kDa and 81 kDa per se were also increased
band shift of HSF1 (66 kDa to 81 kDa) (HSF1): band shift was observed
expression of Hsp72 (Hsp72; K562 cells not given heat shock): enhancement of the expression of Hsp72 by ΔHA4 was not observed
expression of Hsp72 (Hsp72; K562 cells, 1, 10 or 100 ng/mL, heat shock 43° C. 20 minutes, then 37° C. 2 hours): particularly strongly enhanced
